{
  "source": "patent US10214583B2",
  "about": "“Sodium pump antibody agonists and methods of treating heart disease using the same” (priority 2011, dated 2019)",
  "key": {"isolated rat myocytes": {"test_system": "isolated rat myocytes", "assay": "Nifedipine and KB-R7943 sensitive 45Ca influx", "type": "cell-based", "protocol": "The reaction was stopped by adding 5 mM EGTA on ice and cells were washed and spun at 4000 rpm for 2 min (×3) to remove extracellular ^45Ca. Net intracellular counts per minute (cpm) of ^45Ca for each sample was determined by using a β-scintillation counter and the concentration of ^45Ca was calculated as described previously (20)."}, "[1]": {"test_system": "isolated rat cardiac myocytes", "assay": "Sodium Green fluorescence (intracellular Na+)", "type": "cell-based", "protocol": "The final concentration of Sodium Green in each sample tube was 10 μM during the incubation. The myocytes were then transferred to 96-well plates (Nunc) and the measurement of Sodium Green fluorescence was carried out by excitation at 485 nm and quantifying emission at 535 nm using a VICTOR-II multilabel counter (PerkinElmer Life Sciences)."}, "[2]": {"test_system": "isolated rat cardiac myocytes", "assay": "Rat myocyte contractility (cell shortening)", "type": "cell-based", "details": "0.1 mM PB2948 + 0.5 μM JY2948", "excerpt": "Rat ventricular myocytes were isolated as described (18). The contraction amplitude was indexed by the percentage shortening of cell length (19)."}, "NKA β1 subunit": {"test_system": "NKA β1 subunit", "assay": "Specificity analysis by Western blotting", "type": "binding, pig, dog, rat", "details": "PB2948", "protocol": "Samples of purified rat and dog NKA, along with SDS-stripped pig α1 and β1 subunits (30 μg each) were mixed with electrophoresis sample buffer separately, boiled for 5 min, and loaded on freshly made 7.5% SDS-PAGE gel. Following electrophoresis, the samples were transferred from the SDS gel to a nitrocellulose membrane (0.45 μm). […] The membranes were then washed and incubated with secondary antibody (1:7500) for 1 hour. The color was then developed for visual analysis."}, "[3]": {"test_system": "Spontaneously Hypertensive Heart Failure (SHHF) rats", "assay": "Immunization of late-stage SHHF rats, heart function by echo", "type": "in vivo", "details": "14 months old SHHF rats, control rat died", "protocol": "Studies were also conducted on the ability of NKA alpha subunit peptides to induce a therapeutic immune response in late-stage Spontaneously Hypertensive Heart Failure (SHHF) rats. The SHHF rats used for this study were 14 months old with late-stage heart failure. The heart function was measured by echo and expressed as percent of fractional shortening (FS %). The initial heart functions were 26.0% and 28.0% for control SHHF rat and the one with immunization, respectively. […] The peptide with which the rats were immunized has the following amino acid sequence […] (SEQ ID NO:7), as disclosed in U.S. Pat. No. 7,754,210."}},
  "note": "“Also recorded” adds a separate entry of the source.",
  "data": [
    {"compound": "C[C@@H]1O[C@@H](O[C@H]2C[C@@H](O)[C@]3(CO)[C@H]4[C@H](O)C[C@]5(C)[C@@H](C6=CC(=O)OC6)CC[C@]5(O)[C@@H]4CC[C@]3(O)C2)[C@H](O)[C@H](O)[C@H]1O", "note": "[ouabain]", "values": [
      {"measurement": "ouabain-induced 45Ca influx relative to JY2948/β1 subunit-induced influx", "setting": "isolated rat myocytes", "value": 4.4, "unit": "fold"},
      {"measurement": "share of ouabain-induced 45Ca influx through LTCC", "setting": "isolated rat myocytes", "value": "approximately 40%"},
      {"measurement": "share of ouabain-induced 45Ca influx through NCX", "setting": "isolated rat myocytes", "value": "~60", "unit": "%"},
      {"measurement": "45Ca influx", "setting": "isolated rat myocytes; ouabain 2.5 mM alone", "value": "330±6.4", "unit": "pCi"},
      {"measurement": "nifedipine-resistant 45Ca influx", "setting": "isolated rat myocytes; ouabain + 10 μM nifedipine", "value": "188±78", "unit": "pCi"},
      {"measurement": "ouabain-induced 45Ca influx", "setting": "isolated rat myocytes; ouabain + both nifedipine and KB-R7943", "value": "completely impeded; also recorded: completely abolished"},
      {"measurement": "Sodium Green fluorescence intensity", "setting": "[1]; ouabain (2.5 mM)", "value": "136±13", "unit": "%"},
      {"measurement": "Sodium Green fluorescence intensity", "setting": "[1]; ouabain + 5 μM KB-R7943", "value": "153±19", "unit": "%"},
      {"measurement": "Sodium Green fluorescence intensity", "setting": "[1]; ouabain + 30 μM KB-R7943", "value": "151±23", "unit": "%"}
    ]},
    {"compound": "N=C(N)SCCc1ccc(OCc2ccc([N+](=O)[O-])cc2)cc1", "note": "[KB-R7943]", "values": [
      {"measurement": "effect on JY2948-induced 45Ca influx", "setting": "isolated rat myocytes; KB-R7943 (5 μM)", "value": "failed to inhibit"},
      {"measurement": "changes of 45Ca concentration compared with control cell background", "setting": "isolated rat myocytes; KB-R7943 alone (504 [sic])", "value": "No significant changes"},
      {"measurement": "Sodium Green fluorescence intensity", "setting": "[1]; 5 μM KB-R7943 alone, control 100", "value": "99±10", "unit": "%"},
      {"measurement": "Sodium Green fluorescence intensity", "setting": "[1]; 30 μM KB-R7943 alone, control 100", "value": "102±7.0", "unit": "%"}
    ]},
    {"compound": "KERGEFNHERGER (listed as Rattus norvegicus) [PB2948]", "values": [
      {"measurement": "JY2948-induced positive inotropic effect in the presence of peptide blocker", "setting": "[2]", "value": "completely eliminated"},
      {"measurement": "interaction between JY2948 and native β1 subunit in presence of peptide blocker", "setting": "NKA β1 subunit", "value": "completely abolished"}
    ]},
    {"compound": "DVEDSYGQQWTYEQR (chemically-synthesized antigen) [SEQ ID NO:7, NKA alpha subunit peptide used to immunize SHHF rats, disclosed in U.S. Pat. No. 7,754,210]", "values": [
      {"measurement": "late-stage SHHF rat cardiac function (fractional shortening, FS %)", "setting": "[3]", "value": "significantly improved"}
    ]}
  ]
}
